From patent US20210267207A1, “NOVEL AGROCHEMICAL COMBINATIONS” (priority 2018, published 2021)
Like-named read-outs stand apart in the source and are kept apart here.

Legend:
stem borer = test: Field trial of the combination on stem borer in paddy, % mortality; type: in vivo
Experimental: Trials were conducted to test the efficacy of the combination of Chlorantraniliprole+Dinotefuran+Pymetrozine on stem borer in paddy: […]

[1] = type: in vivo; details: paddy
white ears in paddy = test: Field trial on white ears in paddy, number of white ears per plot; type: in vivo

In the case of `CNC(=N[N+](=O)[O-])NCC1CCOC1` (racemic) [Dinotefuran, (EZ)—(RS)-1-methyl-2-nitro-3-(tetrahydro-3-furylmethyl)guanidine], the “% mortality 3 DAA” value (stem borer; dose 40 gm. ai/ha) is reported as 65%, the “% mortality 7 DAA” value (stem borer; dose 40 gm. ai/ha) is reported as 75% and the “% mortality 10 DAA” value (stem borer; dose 40 gm. ai/ha) is reported as 75%. The “% mortality 14 DAA” value (stem borer; dose 40 gm. ai/ha) was 70%, the Yield ([1]; dose 40 gm. ai/ha) was 3500 and the “Number of white ears per plot 7 DAA” value (white ears in paddy; dose 40 gm. ai/ha) was 11. The “Number of white ears per plot 14 DAA” value (white ears in paddy; dose 40 gm. ai/ha) was 19 and the “Number of white ears per plot 21 DAA” value (white ears in paddy; dose 40 gm. ai/ha) was 41.

For `CNC(=O)c1cc(Cl)cc(C)c1NC(=O)c1cc(Br)nn1-c1ncccc1Cl` [Chlorantraniliprole, 3-bromo-4′-chloro-1-(3-chloro-2-pyridyl)-2′-methyl-6′-(methylcarbamoyl)pyrazole-5-carboxanilide], the “% mortality 3 DAA” value (stem borer; dose 30 gm. ai/ha) was 3%, the “% mortality 7 DAA” value (stem borer; dose 30 gm. ai/ha) was 7% and the “% mortality 10 DAA” value (stem borer; dose 30 gm. ai/ha) was 7.9%. The “% mortality 14 DAA” value (stem borer; dose 30 gm. ai/ha) was 6.9%, the Yield ([1]; dose 30 gm. ai/ha) was 4322 and the “Number of white ears per plot 7 DAA” value (white ears in paddy; dose 30 gm. ai/ha) was 5. The “Number of white ears per plot 14 DAA” value (white ears in paddy; dose 30 gm. ai/ha) was 7 and the “Number of white ears per plot 21 DAA” value (white ears in paddy; dose 30 gm. ai/ha) was 14.

In the case of `CC1=NNC(=O)N(/N=C/c2cccnc2)C1` [Pymetrozine], the “% mortality 3 DAA” value (stem borer; dose 150 gm. ai/ha) is reported as 75%, the “% mortality 7 DAA” value (stem borer; dose 150 gm. ai/ha) is reported as 88% and the “% mortality 10 DAA” value (stem borer; dose 150 gm. ai/ha) is reported as 89%. The “% mortality 14 DAA” value (stem borer; dose 150 gm. ai/ha) was 79%, the Yield ([1]; dose 150 gm. ai/ha) was 3600 and the “Number of white ears per plot 7 DAA” value (white ears in paddy; dose 150 gm. ai/ha) was 12. The “Number of white ears per plot 14 DAA” value (white ears in paddy; dose 150 gm. ai/ha) was 22 and the “Number of white ears per plot 21 DAA” value (white ears in paddy; dose 150 gm. ai/ha) was 43.
